Results published in patent publication US7906486B2, “Method of treating or preventing tissue deterioration, injury or damage due to disease of mucosa” (SciClone Pharmaceuticals, Inc., priority 2007, dated 2011).
Values joined by “and” are separate entries in the source; they are usually repeats but may differ in a detail not shown here. Equal entries are not always repeated.

Key:
[1] = Weights and survival (Example 2, SCI-02); format: in vivo, Syrian Golden Hamsters
Protocol: (§1) All animals were weighed daily and their survival recorded, in order to assess possible differences in animal weight among treatment groups as an indication for mucositis severity and/or possible toxicity resulting from the treatments.
The mean daily percent weight change data was evaluated. The saline treated control hamsters gained an average of 44.1% of their starting weight during the study. Hamsters in the group receiving SCV-07 100 μg/kg once daily on days −1 to 20 gained an average of 49.9% of their starting weight during the study. Hamsters in the group receiving SCV-07 at 100 μg/kg twice daily on days −1 to 20 gained an average of 61.3% of their starting weight during the study. Hamsters in the group receiving SCV-07 at 1 mg/kg once daily on days −1 to 20 gained an average of 63.4% of their starting weight during the study. Hamsters in the group receiving SCV-07 at 1 mg/kg twice daily on days −1 to 20 gained an average of 69.1% of their starting weight during the study. The significance of these differences was evaluated by calculating the area-under-the-curve (AUC) for the weight gain of each animal, and then comparing the different treatment groups using a One-Way ANOVA test.

[2] = Weights and survival (Example 3, SCI-03); format: in vivo, Syrian Golden Hamsters
Protocol: as §1
There were no significant differences in weight changes between study groups. The mean daily percent weight change data was evaluated. The saline treated control hamsters gained an average of 76.3% of their starting weight during the study. Hamsters in the group receiving SCV-07 at 100 μg/kg on days −1 to 29 gained an average of 80.7% of their starting weight during the study. Hamsters in the group receiving SCV-07 at 100 μg/kg on days of radiation only gained an average of 66.3% of their starting weight during the study. Hamsters in the group receiving SCV-07 at 100 μg/kg on day −1, day 4, day 5 and days 10-29 gained an average of 69.7% of their starting weight during the study. The significance of these differences was evaluated by calculating the area-under-the-curve (AUC) for the weight gain of each animal, and then comparing the different treatment groups using a One-Way ANOVA test.

[3] = individual animals, Group 4 (SCV-07 100 μg/kg on days −1, 4, 5 and 10-29), second part of table

**Q.** With `N[C@H](CCC(=O)N[C@@H](Cc1c[nH]c2ccccc12)C(=O)O)C(=O)O` [SCV-07, γ-D-glutamyl-L-tryptophan] as the compound, how does the “average weight gain, % of starting weight during the study” value (shortened to “average weight gain, %”) ([1]; 100 ug/kg once daily on days -1 to 20) read?
**A.** 49.9%

**Q.** And the “P, weight gain greater than saline controls” value ([1]; 100 ug/kg twice daily)?
**A.** 0.014

**Q.** And the “average weight gain, %” value ([1]; 100 ug/kg twice daily on days -1 to 20)?
**A.** 61.3%

**Q.** And the “P, weight gain greater than saline controls” value ([1]; 1 mg/kg once daily)?
**A.** 0.009

**Q.** And the “average weight gain, %” value ([1]; 1 mg/kg once daily on days -1 to 20)?
**A.** 63.4%

**Q.** What about the “P, weight gain greater than saline controls” value ([1]; 1 mg/kg twice daily) of the same compound?
**A.** 0.004

**Q.** And the “average weight gain, %” value ([1]; 1 mg/kg twice daily on days -1 to 20)?
**A.** 69.1%

**Q.** What about the “P, One-Way ANOVA of weight gain AUC, SCV-07 treated groups vs control group” value ([1]; all SCV-07 groups, significant differences) of the same compound?
**A.** 0.012

**Q.** What about the “average weight gain, %” value ([2]; 100 ug/kg on day -1, day 4, day 5 and days 10-29) of the same compound?
**A.** 69.7%

**Q.** What about the “average weight gain, %” value ([2]; 100 ug/kg on days -1 to 29) of the same compound?
**A.** 80.7%

**Q.** And the “average weight gain, %” value ([2]; 100 ug/kg on days of radiation only)?
**A.** 66.3%

**Q.** And the “Animal weight, Day 18” value [2, 3]?
**A.** 113 and 121 and 88 and 98

**Q.** What about the “Animal weight, Day 19” value [2, 3] of the same compound?
**A.** 118 and 127 and 92 and 102

**Q.** And the “Animal weight, Day 20” value [2, 3]?
**A.** 118 and 128 and 92 and 104

**Q.** And the “Animal weight, Day 21” value [2, 3]?
**A.** 119 and 131 and 94 and 109

**Q.** And the “Animal weight, Day 22” value [2, 3]?
**A.** 120 and 133 and 95 and 109

**Q.** What about the “Animal weight, Day 23” value [2, 3] of the same compound?
**A.** 120 and 135 and 97 and 111

**Q.** And the “Animal weight, Day 24” value [2, 3]?
**A.** 123 and 135 and 99 and 112

**Q.** And the “Animal weight, Day 25” value [2, 3]?
**A.** 122 and 137 and 98 and 113

**Q.** What about the “Animal weight, Day 26” value [2, 3] of the same compound?
**A.** 123 and 139 and 100 and 118

**Q.** What about the “Animal weight, Day 27” value [2, 3] of the same compound?
**A.** 127 and 140 and 102 and 121

**Q.** And the “Animal weight, Day 28” value [2, 3]?
**A.** 128 and 142 and 103 and 122

**Q.** And the “Animal weight, Day 29” value [2, 3]?
**A.** 128 and 142 and 102 and 118

**Q.** What about the “Animal weight, Day 30” value [2, 3] of the same compound?
**A.** 132 and 146 and 105 and 126

**Q.** And the “Animal weight, Day 31” value [2, 3]?
**A.** 134 and 150 and 108 and 126

**Q.** And the “Animal weight, Day 32” value [2, 3]?
**A.** 134 and 149 and 109 and 129

**Q.** And the “Animal weight, Day 33” value [2, 3]?
**A.** 137 and 154 and 112 and 132

**Q.** And the “Animal weight, Day 35” value [2, 3]?
**A.** 140 and 154 and 113 and 134

**Q.** And the “Animal weight, Day 34” value ([2]; individual animals, Group 4 (SCV-07 100 μg/kg on days −1, 4, 5 and 10-29), second part of table, c18, day inferred as 34)?
**A.** 139 and 153 and 112 and 133
